What was measured:
L6 rat skeletal cells [1] = test: SOD antioxidant assay, SOD activity of L6 cells under hypoxic conditions; assay type: cell-based; conditions: 80 μg/ml, hypoxic condition; vehicle 16.58% ± 0.31%; means ± SD
Protocol: Cells were homogenized in ice-cold phosphate buffer (50 mmol/L, pH 7.4) to make 10% w/v homogenate with a motor-driven Potter-Elvejhem glass homogenizer at 0-4° C. The homogenate will be then centrifuged at 300 g for 10 min at 4° C. to remove intact cells and debris. The remaining supernatant was divided into 2 parts for different enzyme assays. For SOD assays, the supernatant will be centrifuged at 2300 g for a further 10 min at 4° C. After centrifugation, the pellets will be discarded and the supernatants were used for the assessment of enzyme activity. The procedure was carried out on ice or at 0-4° C. Reagents for the assay were obtained through a commercially available SOD Assay Kit.
The samples were mixed and placed in a water bath at 37° C. for 40 min. A chromogenic agent (200 μl) was then added, the samples mixed, then left at room temperature for 10 min before absorbance at 550 nm was detected. The Inhibition ration was then calculated using the formula: Inhibition ratio=(ODn−OD1)/OD1×100%. […] The protein concentration was measured using the BCA protein quantitative assay.
After 10 μl was selected for use for the SOD assays, SOD activity assays were performed for the samples of the various treatment groups (20 μg/ml, 40 μg/ml, or 80 μg/ml of RG, Rhodiola Crenulata, or Ginkgo biloba, respectively, and 80 μg/ml of Vitamin C) where the sample volumes were as shown in Table 10. […]

L6 rat skeletal cells [2] = test: MTT assay, viability of L6 cells under hypoxic conditions; assay type: cell-based; conditions: 80 μg/ml, 12 h pretreatment, 1 h hypoxia; vehicle 27% ± 1.3%; means ± SD
Protocol: L6 cells were cultured in 96-well tissue culture plates (1×10^4 cell/well) with 10% FBS for 24 hours. Serum-free medium was then used for another 24 hours prior to treatment with RGC, Rhodiola crenulata extract, or Ginkgo biloba extract. Cell viability and proliferation were measured by the 3-(4,5-dimethylthiazol-2-yl)-2,5-diphenyltetrazolium bromide (MTT) and 5-bromo-2′-deoxyuridine (BrdU) (Roche Diagnostics, USA) incorporation assays, respectively.
The L6 cells were plated in 96-well plates (5000 cell/well) for 24 hours. Then the serum-free medium was used and cells incubated for another 12 hours. Sequentially, cells were pretreated with various concentrations (20 μg/ml, 40 μg/ml, 80 μg/ml) of RG, Rhodiola Crenulata, or Ginkgo biloba, respectively, or Vitamin C (80 μg/ml) for 12 hours, followed by exposure to an ischemic solution (EBSS) and placed in an anaerobic chamber (Diagnostic System) for 1 hour. The control cells were incubated without treatment for 1 hour. After 1 hour exposure to hypoxic and ischemic environments, 100 μl MTT (0.5 mg/ml in PBS) was added to each well and the cells were incubated at 37° C. for 4 h. The MTT solution was prepared by dissolving 250 mg of MTT in 50 ml PBS (0.01 mol/L, PH7.4) to prepare 0.5% MTT staining solution. The solution was then filtered through Millipore membrane and stored at 4° C. […]

O=C1O[C@H]([C@@H](O)CO)C(O)=C1O [Vitamin C]
SOD Enzymatic Activity (L6 rat skeletal cells [1]): 20.00% ± 0.08% | Cell proliferation in hypoxic conditions (cell survival rate, MTT) (L6 rat skeletal cells [2]): 41% ± 3.2%

Reference: patent US8119170B2, “Herbal compositions and methods for enhancing vital energy and athletic performance” (priority 2008, dated 2012)
